# Measurements as given in publication PMC8333425, “Discovery of a dual Ras and ARF6 inhibitor from a GPCR endocytosis screen” (Nature Communications, 2021).
# “And” between values parts separate entries of the source, which are not always exact repeats. Identical values can stand only once.
# System: Gαi3
# Test: Gαi3 BRET sensor, AT1R-mediated
# Assay type: cell-based, human
# Method: HEK293SL cells were seeded at a density of 7.5 × 10^5 cells per 100-mm dish and 24 h later, transiently transfected as such. For receptor internalization experiments, cells were transfected with 0.12 μg AT1R-RlucII, B2R-RlucII, or β2AR-RlucII and 0.48 μg of either rGFP-CAAX (to assess removal from the PM) or rGFP-FYVE (to assess accumulation in the endosomes). For β-arrestin recruitment assays, cells were transfected with 0.48 μg of receptor-YFP along with 0.12 μg of β-arrestin-RlucII. For β-arrestin/AP-2 binding experiments, cells were transfected with 1 μg Flag-AT1R, 1 μg β2-Adaptin-YFP, and 0.12 μg β-arrestin2-RlucII. […] For kinetics of β-arrestin recruitment or β-arrestin binding to receptor and AP-2 experiments, cells were serum starved for 30 min, pretreated with 21 (50 µM) or Barbadin (100 µM) for 30 min, stimulated with 100 nM AngII or 1 µM BK and BRET signals were monitored at indicated times using a Victor X Light plate reader (PerkinElmer). […] The BRET ratio was determined by calculating the ratio of the light emitted by YFP over the light emitted by the RlucII. […] For the kinetics of GTPase and PI3K/Akt activation, cells were serum starved, pretreated with 21 (50 µM) or Wortmannin (200 nM) for 30 min, stimulated with ligand (100 nM AngII or 100 ng/ml EGF) and BRET signals were monitored at indicated times. […]
smiles,measurement,setting,value
CC(C)C(=O)N1CCN(c2ccc(NC(=O)c3cc4ccccc4o3)cc2Cl)CC1 [Compound 21],Gαi3 engagement by AT1R (BRET sensor),50 μM,lack of inhibitory effects
same,"Gi3 BRET sensor signal (S_Fig.4b), single experiments",listed as Comp 21,0.11 and 0.122
